These results are taken from patent publication US4616020A, “Medicaments, vicinal dihydroxyalkylxanthines contained therein, processes for the preparation of these xanthine compounds and intermediate products suitable for these” (Hoechst Aktiengesellschaft, priority 1981, dated 1986).

Usually ED50 stands for the dose at which the effect has come halfway, by size or by number of responders.

The test system of data set [1] is serotonine-induced bronchospasm. The data set can be described thus: Bronchospasmolytic activity (Konzett-Rossler): inhibition of serotonine-induced bronchospasm in guinea-pigs. The format is in vivo. The note with it: Cavia porcellus, iv, guinea-pig, urethane anaesthesia; read-out: Bronchospasmolytic effect (ED50) compared to serotonine. The procedure: (§1) The test substances were administered in aqueous solution either intravenously (i.v.) or intraduodenally (i.d.). The ED50 values, which represent that dose in mg/kg at which the experimentally produced spasm is decreased by one half compared to that in untreated animals, were determined graphically from the dose-activity curves.

For another data set, the system named is central nervous system. The note with it: according to German Offenlegungsschrift No. 2,716,402; markedly less than theophylline; cited from earlier work.
For data set [2] the following is noted: cited from earlier work; for side-effects: background statement.
For data set [3], the system named is histamine-induced bronchospasm. The data set can be described thus: Bronchospasmolytic activity (Konzett-Rossler): inhibition of histamine-induced bronchospasm in guinea-pigs. Type of data set: in vivo. The note with it: Cavia porcellus, iv, guinea-pig, urethane anaesthesia; read-out: Bronchospasmolytic effect (ED50) compared to histamine. The procedure: as §1

A further data set concerns NMRI mice. The conditions noted are these: mouse, i.v.; according to German Offenlegungsschrift 2,716,402; 10080 min; cited from earlier work.
The conditions of data set [4]: background statement; cited from earlier work.
Data set [5] relates to acetylcholine-induced bronchospasm. The data set can be described thus: Bronchospasmolytic activity (Konzett-Rossler): inhibition of acetylcholine-induced bronchospasm in guinea-pigs. The format is in vivo. The conditions noted are these: Cavia porcellus, iv, guinea-pig, urethane anaesthesia; read-out: Bronchospasmolytic effect (ED50) compared to acetylcholine. On the procedure: as §1

The nature of another data set: Ratio of LD50 to ED50. The format is in vivo, mouse (LD50); guinea-pigs (ED50). The note with it: LD50 i.v. mouse from German Offenlegungsschrift 2,716,402; ED50 i.v. guinea-pig. On the procedure: as §1
Determination of the LD50 values was by the standard method of the mortality occurring within 7 days among NMRI mice after a single intravenous (i.v.), intraperitoneal (i.p.) or oral (p.o.) administration.

The conditions of data set [6]: background statement; cited from earlier work. This is another data set of the same source.

Structures are written as SMILES. Bounds are passed on as bounds.

On to `CCCn1c(=O)c2c(ncn2CC(O)CO)n(CCC)c1=O` (stereo not shown) [7-(2,3-dihydroxypropyl)-1,3-dipropylxanthine], for which the median effective dose (ED50) is 10 mg/kg in data set [1], 6.5 mg/kg in data set [3] and over 10 mg/kg in data set [5]. The “stimulation of the central nervous system” value with central nervous system is given as “stimulation of the central nervous system”. Further, in [2] (German Offenlegungsschrift No. 2,716,402), the “acute toxicity compared to theophylline” value was “lower acute toxicity”. For the same compound, the side-effects result in data set [2] is listed as “fewer disadvantageous side-effects”. For the same compound, the “Toxicity LD50” value in the data set on NMRI mice is recorded as 287 mg/kg. In addition, the “bronchospasmolytic activity compared to theophylline” value in data set [4] is “almost to reach the bronchospasmolytic activity of theophylline”. Also, the “ratio of LD50 to ED50 (head is drawing 107)” value in “Ratio of LD50 to ED50” is reported as under 32. Moreover, the water solubility result in data set [6] is given as “readily soluble in water”.
Turning to `Cn1c(=O)c2c(ncn2CC(O)CO)n(C)c1=O` (stereo not shown) [Diphylline, 7-(2,3-dihydroxypropyl)-1,3-dimethylxanthine], the ED50 in [1], in data set [3] and in data set [5] was over 30 mg/kg each time. Moreover, the “stimulation of the central nervous system” value in the data set on central nervous system was “stimulation of the central nervous system”. Further, the side-effects entry in data set [2] is “much less pronounced”. Further, in the data set on NMRI mice, the “Toxicity LD50” value is on record as 886 mg/kg. Besides, the “bronchospasmolytic activity compared to theophylline” value in [4] was “drastic decrease in the bronchospasmolytic activity”. In addition, the “ratio of LD50 to ED50 (head is drawing 107)” value in “Ratio of LD50 to ED50” is on record as under 30. The water solubility entry in data set [6] is recorded as “good water solubility”.
